US4496555A, “Compounds and compositions for inhibiting estrogen sulfotransferase transferase activity, process and novel intermediates therein” (Wayne State University, priority 1983, dated 1985)

Legend:
[1] = target: T1, Porcine Uterine Estrogen Sulfotansferase (Sus scrofa, UniProt A0A286ZW98); assay: Inhibition of porcine uterine estrogen sulfotransferase (estrogen sulfates formed); format: biochemical; settings: control 1.26 p mole
T1 sequence (A0A286ZW98 1-296): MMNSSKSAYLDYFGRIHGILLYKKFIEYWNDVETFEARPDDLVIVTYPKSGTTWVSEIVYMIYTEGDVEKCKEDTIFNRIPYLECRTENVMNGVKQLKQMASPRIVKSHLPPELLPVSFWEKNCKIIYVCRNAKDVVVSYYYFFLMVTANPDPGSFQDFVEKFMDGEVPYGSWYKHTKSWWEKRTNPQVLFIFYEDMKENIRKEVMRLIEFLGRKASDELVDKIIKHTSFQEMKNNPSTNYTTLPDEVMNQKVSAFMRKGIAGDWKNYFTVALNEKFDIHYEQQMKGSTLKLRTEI
Description: (§1) The estrogen sulfotransferase inhibiting activity of compounds within the scope of the invention are determined by inhibition of bovine adrenal or porcine uterine estrogen sulfotransferase. The desired concentration of estrogen sulfates is determined by comparisons after appropriate incubations with and without inhibitors and at various concentrations of inhibitors in the incubation. A detailed description of materials and methods for both bovine adrenal sulfotransferase inhibition and metabolism of estrogen in porcine uterus during implantation is described in U.S. Pat. No. 4,340,602 incorporated herein by reference above. Additionally, U.S. Pat. No. 4,340,602 describes materials and methods for determining estrogen sulfurylation in human endometrial curettings.

[2] = target: T2, Bovine Adrenal Estrogen Sulfotransferase (Bos taurus, UniProt P19217); assay: Purified bovine adrenal estrogen sulfotransferase inhibition; format: biochemical; settings: purified bovine adrenal enzyme; inhibitor concentration not given
T2 construct: from tissue; host or cells: bovine adrenal
T2 sequence (P19217 1-295): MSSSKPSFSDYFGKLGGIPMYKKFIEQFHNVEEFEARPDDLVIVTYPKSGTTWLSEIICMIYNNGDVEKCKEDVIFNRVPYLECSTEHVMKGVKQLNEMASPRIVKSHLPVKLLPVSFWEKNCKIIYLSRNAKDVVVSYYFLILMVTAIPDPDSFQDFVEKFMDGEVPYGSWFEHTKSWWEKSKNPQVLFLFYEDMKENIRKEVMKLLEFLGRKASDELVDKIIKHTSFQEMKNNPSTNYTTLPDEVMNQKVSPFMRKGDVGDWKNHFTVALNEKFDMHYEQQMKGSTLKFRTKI
Description: as §1
*Methods described in: Rozhin, J., et al. J. Biol. Chem. 252, 7214 (1977)

estrogen sulfurylation = settings: Rozhin et al, J. Biol Chem., 1977, 252, 7214; cited from earlier work
[3] = system: receptor binding and nuclear migration of physiological levels of 17β-estradiol; settings: Rozhin et al 1977; cited from earlier work

Compound	Estrogen Sulfates ([1]; 10-fold inhibitor) [p mole]	Estrogen Sulfates ([1]; 10^2-fold inhibitor) [p mole]	Estrogen Sulfates ([1]; 10^3 fold inhibitor) [p mole]	% Inhibition [2] [%]	estrogen sulfurylation (estrogen sulfurylation)	interference with receptor binding and nuclear migration of 17β-estradiol [3]
C[C@]12CC[C@@H]3c4cccc(F)c4CC[C@H]3[C@@H]1CC[C@@H]2O [4-F-1,3,5(10)estratriene 17β-ol, 4-Fluoroestra-1,3,5-(10)-trien-17β-ol]	1.07	1.08	0.67	81	–	–
COc1ccc2c(c1[N+](=O)[O-])CC[C@@H]1[C@@H]2CC[C@]2(C)C(=O)CC[C@@H]12 [4-nitroestrone 3-0-methylether]	–	–	–	–	blocks estrogen sulfurylation	without interfering with the receptor binding and nuclear migration
